This note sets out measurements from ChEMBL document CHEMBL1139796, “Novel anti-tuberculosis agents from MCR libraries” (Bioorg Med Chem Lett, 2007).

This assay relates to Mycobacterium tuberculosis. Kind of assay: Antimycobacterial activity against Mycobacterium tuberculosis at 12.5 ug/ml. The following applies: read-out: GI. It counts as functional.

Take `C=CCNC(=O)C(C=C)(CC)N(C(=O)c1cccnc1)C1CC1` (stereo unspecified): the inhibition of growth at 12.5 µg/mL was determined as 50%.
The same measure for `C=CCNC(=O)C1(N(CC=C)C(=O)c2cccnc2)CCCCC1`: 80%; for `C=CCNC(=O)C1(N(CC=C)C(=O)c2cccnc2)CCCc2cc(OC)ccc21` (stereo unspecified): 80%; for `C=CCNC(=O)C(C)(C)N(CCCn1ccnc1)C(=O)c1cccnc1`: 57%.
The same measure for `C=CCNC(=O)C(C)(C)N(CC=C)C(=O)c1cccnc1`: 76%; for `C=CCNC(=O)C(C)(C)N(C(=O)c1cccnc1)C(C)c1ccccc1` (stereo unspecified): 83%; for `C=CCNC(=O)C(N(CC=C)C(=O)c1cccnc1)C(Cl)(Cl)Cl` (stereo unspecified): 6%.
Under `C=CCNC(=O)C(N(C(=O)c1cccnc1)C(C)c1ccccc1)C(Cl)(Cl)Cl` (stereo unspecified) stands 82%; under `C=CCNC(=O)C(C=C)(CC)N(C(=O)c1cccnc1)C(C)c1ccccc1` (stereo unspecified), 73%.
In the case of `C=CCNC(=O)C(C)(C(C)C)N(CCCn1ccnc1)C(=O)c1cccnc1` (stereo unspecified), the inhibition of growth at 12.5 µg/mL came out at 54%.
The same measure for `C=CCNC(=O)C1(N(C(=O)c2cccnc2)C2CC2)CCCCC1`: 71%; for `C=CCNC(=O)C(C)(C(C)C)N(CC=C)C(=O)c1cccnc1` (stereo unspecified): 69%; for `C=CCNC(=O)C(N(Cc1ccncc1)C(=O)c1cccnc1)C(F)(F)F` (stereo unspecified): 58%.
Under `C=CCNC(=O)C(N(Cc1ccncc1)C(=O)c1cccnc1)C(Cl)(Cl)Cl` (stereo unspecified) stands 49%.
The same measure for `C=CCNC(=O)C(N(C(=O)c1cccnc1)C1CC1)C(F)(F)F` (stereo unspecified): 74%.
Take `C=CCNC(=O)C1(N(C(=O)c2cccnc2)C2CCCCC2)CCCc2cc(OC)ccc21` (stereo unspecified): the inhibition of growth at 12.5 µg/mL amounted to 72%.
The same measure for `C=CCNC(=O)C1(N(CC(C)(C)C)C(=O)c2cccnc2)CCN(Cc2ccccc2)CC1`: 28%; for `C=CCNC(=O)C(CCCC)N(CC(C)(C)C)C(=O)c1cccnc1` (stereo unspecified): 102%.
The same measure for `C=CCNC(=O)C1(N(C(=O)c2cccnc2)C2CC2)CCCc2cc(OC)ccc21` (stereo unspecified): 69%.
The same measure for `C=CCNC(=O)C(C)(C)N(CC(C)(C)C)C(=O)c1cccnc1`: 71%.
As to `C=CCNC(=O)C1(N(CCCn2ccnc2)C(=O)c2cccnc2)CCCc2cc(OC)ccc21` (stereo unspecified), the inhibition of growth at 12.5 µg/mL was 69%.
Under `C=CCNC(=O)C(C)(C)N(Cc1ccncc1)C(=O)c1cccnc1` stands 51%; under `C=CCNC(=O)C1(N(CCCN2CCOCC2)C(=O)c2cccnc2)CCCc2cc(OC)ccc21` (stereo unspecified), 64%.
The same measure for `C=CCNC(=O)C(C)(C(C)C)N(CC(C)(C)C)C(=O)c1cccnc1` (stereo unspecified): 62%.
Under `C=CCNC(=O)C(C(C)C)N(CCCn1ccnc1)C(=O)c1cccnc1` (stereo unspecified) stands 43%; under `C=CCNC(=O)C(C(C)C)N(C(=O)c1cccnc1)C(C)c1ccccc1` (stereo unspecified), 77%; under `C=CCNC(=O)C(CCCCC)N(CCCn1ccnc1)C(=O)c1cccnc1` (stereo unspecified), 82%.
Turning to `C=CCNC(=O)C(N(C(=O)c1cccnc1)C1CCCCC1)C(Cl)(Cl)Cl` (stereo unspecified), the inhibition of growth at 12.5 µg/mL turned out to be 74%.
Under `C=CCNC(=O)C1(N(CC(C)(C)C)C(=O)c2cccnc2)CCCCC1` stands 99%.
In the case of `C=CCNC(=O)C(C)(c1ccccc1)N(C(=O)c1cccnc1)C(C)c1ccccc1` (stereo unspecified), the inhibition of growth at 12.5 µg/mL was found to be 83%.
For the molecule `C=CCNC(=O)C(C)(C(C)C)N(C(=O)c1cccnc1)C1CC1` (stereo unspecified), the inhibition of growth at 12.5 µg/mL amounted to 67%.
Under `C=CCNC(=O)C(C)(c1ccccc1)N(C(=O)c1cccnc1)C1CC1` (stereo unspecified) stands 72%.
The same measure for `C=CCNC(=O)C1(N(Cc2ccncc2)C(=O)c2cccnc2)CCCc2cc(OC)ccc21` (stereo unspecified): 63%.
The same measure for `C=CCNC(=O)C(C(C)C)N(C(=O)c1cccnc1)C1CCCCC1` (stereo unspecified): 62%; for `C=CCNC(=O)C(C=C)(CC)N(Cc1ccncc1)C(=O)c1cccnc1` (stereo unspecified): 23%; for `C=CCNC(=O)C(CCCC)N(C(=O)c1cccnc1)C1CCCCC1` (stereo unspecified): 100%.
With `C=CCNC(=O)C(CCCCC)N(CCCN1CCOCC1)C(=O)c1cccnc1` (stereo unspecified), the inhibition of growth at 12.5 µg/mL came to 74%.
The same measure for `C=CCNC(=O)C(C=C)(CC)N(CC(C)(C)C)C(=O)c1cccnc1` (stereo unspecified): 60%.
Under `C=CCNC(=O)C1(N(CC(C)(C)C)C(=O)c2cccnc2)CCCc2cc(OC)ccc21` (stereo unspecified) stands 72%; under `C=CCNC(=O)C1(N(CC=C)C(=O)c2cccnc2)CCN(Cc2ccccc2)CC1`, 94%.
Turning to `C=CCNC(=O)C(N(C(=O)c1cccnc1)C1CCCCC1)C(F)(F)F` (stereo unspecified), the inhibition of growth at 12.5 µg/mL was 60%.
`C=CCNC(=O)C1(N(C(=O)c2cccnc2)C2CCCCC2)CCCCC1`: the inhibition of growth at 12.5 µg/mL worked out at 76%.
Under `C=CCNC(=O)C(C)(C(C)C)N(C(=O)c1cccnc1)C1CCCCC1` (stereo unspecified) stands 95%; under `C=CCNC(=O)C(C)(C(C)C)N(C(=O)c1cccnc1)C(C)c1ccccc1` (stereo unspecified), 83%; under `C=CCNC(=O)C1(N(Cc2ccncc2)C(=O)c2cccnc2)CCN(Cc2ccccc2)CC1`, 64%.
Under `C=CCNC(=O)C1(N(Cc2ccncc2)C(=O)c2cccnc2)CCCCC1` stands 87%.
The same measure for `C=CCNC(=O)C(C)(C)N(CCCN1CCOCC1)C(=O)c1cccnc1`: 70%; for `C=CCNC(=O)C1(N(C(=O)c2cccnc2)C(C)c2ccccc2)CCCc2cc(OC)ccc21` (stereo unspecified): 82%; for `C=CCNC(=O)C(CCCCC)N(C(=O)c1cccnc1)C1CCCCC1` (stereo unspecified): 100%.
For `C=CCNC(=O)C(N(CCCN1CCOCC1)C(=O)c1cccnc1)C(F)(F)F` (stereo unspecified), the inhibition of growth at 12.5 µg/mL turned out to be 72%.
The same measure for `C=CCNC(=O)C(CCCCC)N(CC=C)C(=O)c1cccnc1` (stereo unspecified): 11%; for `C=CCNC(=O)C(N(CCCN1CCOCC1)C(=O)c1cccnc1)C(Cl)(Cl)Cl` (stereo unspecified): 78%; for `C=CCNC(=O)C(C)(C(C)C)N(Cc1ccncc1)C(=O)c1cccnc1` (stereo unspecified): 52%.
Under `C=CCNC(=O)C1(N(C(=O)c2cccnc2)C2CCCCC2)CCN(Cc2ccccc2)CC1` stands 101%; under `C=CCNC(=O)C(C)(C(C)C)N(CCCN1CCOCC1)C(=O)c1cccnc1` (stereo unspecified), 64%.
The same measure for `C=CCNC(=O)C1(N(C(=O)c2cccnc2)C(C)c2ccccc2)CCCCC1` (stereo unspecified): 74%.
Turning to `C=CCNC(=O)C(N(C(=O)c1cccnc1)C(C)c1ccccc1)C(F)(F)F` (stereo unspecified), the inhibition of growth at 12.5 µg/mL amounted to 90%.
The same measure for `C=CCNC(=O)C(CCCC)N(CCCN1CCOCC1)C(=O)c1cccnc1` (stereo unspecified): 69%.
Under `C=CCNC(=O)C1(N(CCCN2CCOCC2)C(=O)c2cccnc2)CCCCC1` stands 49%; under `C=CCNC(=O)C(C=C)(CC)N(CCCn1ccnc1)C(=O)c1cccnc1` (stereo unspecified), 23%.
For the molecule `C=CCNC(=O)C(CCCCC)N(C(=O)c1cccnc1)C1CC1` (stereo unspecified), the inhibition of growth at 12.5 µg/mL worked out at 90%.
As for `C=CCNC(=O)C(C(C)C)N(CC(C)(C)C)C(=O)c1cccnc1` (stereo unspecified), the inhibition of growth at 12.5 µg/mL worked out at 76%.
The same measure for `C=CCNC(=O)C(N(CC=C)C(=O)c1cccnc1)C(F)(F)F` (stereo unspecified): 6%; for `C=CCNC(=O)C(CCCC)N(C(=O)c1cccnc1)C1CC1` (stereo unspecified): 96%; for `C=CCNC(=O)C(CCCC)N(Cc1ccncc1)C(=O)c1cccnc1` (stereo unspecified): 96%.
In the case of `C=CCNC(=O)C(C)(c1ccccc1)N(CC(C)(C)C)C(=O)c1cccnc1` (stereo unspecified), the inhibition of growth at 12.5 µg/mL was 67%.
Under `C=CCNC(=O)C(C)(c1ccccc1)N(CCCN1CCOCC1)C(=O)c1cccnc1` (stereo unspecified) stands 72%.
On to `C=CCNC(=O)C(C(C)C)N(Cc1ccncc1)C(=O)c1cccnc1` (stereo unspecified), for which the inhibition of growth at 12.5 µg/mL came to 50%.
Under `C=CCNC(=O)C(CCCC)N(C(=O)c1cccnc1)C(C)c1ccccc1` (stereo unspecified) stands 100%; under `C=CCNC(=O)C(CCCCC)N(CC(C)(C)C)C(=O)c1cccnc1` (stereo unspecified), 73%.
Take `C=CCNC(=O)C(C)(c1ccccc1)N(CC=C)C(=O)c1cccnc1` (stereo unspecified): the inhibition of growth at 12.5 µg/mL came to 69%.
The same measure for `C=CCNC(=O)C(C)(c1ccccc1)N(Cc1ccncc1)C(=O)c1cccnc1` (stereo unspecified): 68%.
The same measure for `C=CCNC(=O)C(N(CCCn1ccnc1)C(=O)c1cccnc1)C(Cl)(Cl)Cl` (stereo unspecified): 61%; for `C=CCNC(=O)C(N(CC(C)(C)C)C(=O)c1cccnc1)C(F)(F)F` (stereo unspecified): 77%; for `C=CCNC(=O)C(C=C)(CC)N(CCCN1CCOCC1)C(=O)c1cccnc1` (stereo unspecified): 31%.
On to `C=CCNC(=O)C1(N(CCCn2ccnc2)C(=O)c2cccnc2)CCCCC1`, for which the inhibition of growth at 12.5 µg/mL was 43%.
Under `C=CCNC(=O)C(C)(c1ccccc1)N(C(=O)c1cccnc1)C1CCCCC1` (stereo unspecified) stands 57%; under `C=CCNC(=O)C(C)(c1ccccc1)N(CCCn1ccnc1)C(=O)c1cccnc1` (stereo unspecified), 71%.
Under `C=CCNC(=O)C(C(C)C)N(C(=O)c1cccnc1)C1CC1` (stereo unspecified) stands 57%; under `C=CCNC(=O)C(CCCC)N(CC=C)C(=O)c1cccnc1` (stereo unspecified), 100%.
Under `C=CCNC(=O)C(C)(C)N(C(=O)c1cccnc1)C1CCCCC1` stands 92%; under `C=CCNC(=O)C1(N(C(=O)c2cccnc2)C(C)c2ccccc2)CCN(Cc2ccccc2)CC1` (stereo unspecified), 54%.
Turning to `C=CCNC(=O)C(C=C)(CC)N(CC=C)C(=O)c1cccnc1` (stereo unspecified), the inhibition of growth at 12.5 µg/mL is 39%.
As to `C=CCNC(=O)C(CCCCC)N(Cc1ccncc1)C(=O)c1cccnc1` (stereo unspecified), the inhibition of growth at 12.5 µg/mL is 89%.
Under `C=CCNC(=O)C(N(C(=O)c1cccnc1)C1CC1)C(Cl)(Cl)Cl` (stereo unspecified) stands 9%; under `C=CCNC(=O)C(C(C)C)N(CCCN1CCOCC1)C(=O)c1cccnc1` (stereo unspecified), 33%.
